Laboratory results as given in patent publication US20170145005A1, “KINASE INHIBITOR” (THE UNIVERSITY OF TOKYO, priority 2014, published 2017).

What was measured:
[1] = tested on: MiaPaca-2; assay: Growth inhibitory activity on human pancreatic cancer cell lines (Example 2, WST-8); format: cell-based; details: Homo sapiens, MIA PaCa-2; cultured for 96 hours, 2000 cells/well
Protocol: (§1) Two thousand cells of human pancreatic cancer cells lines (L3.6pl, MiaPaca-2, PANC-1, PCI35, PCI66) were seeded in a medium volume of 100 μL in each well of a 96-well microtiter plate. The medium was removed after 18 hours, and 100 μL/well of medium containing the test compound was added. Culture was continued for 72 or 96 hours. The medium containing the test compound was removed, and 100 μL/well of medium containing 10% WST-8 (Dojindo Laboratories Cell Counting kit-8) was added. After culturing for one hour, the OD 450 nm absorbance was measured, and the cell growth inhibitory activity was calculated. Furthermore, RPMI-1640 medium (Sigma) was used as the medium with 10% fetal calf serum (Invitrogen), 50 U/mL penicillin G (Sigma), and 50 μg/mL streptomycin (Sigma) added. The cell lines were cultured at 37° C. in a carbon dioxide incubator with a carbon dioxide concentration of 5%.
(§2) Tables 3 and 4 show the results of compound evaluation when cultured for 96 hours.

[2] = tested on: PCI35; assay: as above; format: cell-based; details: cultured for 96 hours, 2000 cells/well
Protocol: as §1, §2

[3] = tested on: PCI66; assay: as above; format: cell-based; details: cultured for 96 hours, 2000 cells/well
Protocol: as §1, §2

[4] = tested on: PCI66 cells; assay: Animal study: subcutaneous PCI66 tumor in nude mice; format: in vivo, BALB/c nu/nu mice; details: 30 mg/kg intraperitoneal, once a day for five days then two days off, three cycles, from day 14 after tumor injection
Protocol: PCI66 cells, which are human pancreatic cancer cells, were suspended in Hanks balanced salt solution in a concentration of 2×10^7 cells/mL, and 100 μL of the cell suspension was injected subcutaneously to the backs of BALB/c nu/nu mice (SLC, Shizuoka, Japan). Drug administration was begun 14 days after tumor injection. The drug was administered once a day for five days intraperitoneally, then withheld for two days. This cycle was repeated three times. The tumor volume was calculated by the following formula.
Tumor volume(cm^3)=[maximum diameter](cm)×[minimum diameter]^2(cm)/2

[5] = target: PIM-3 kinase (Homo sapiens, UniProt Q86V86); assay: Measurement of PIM-3 kinase inhibitory activity (fluorescent substrate peptide, capillary electrophoresis); format: biochemical; details: 30 μM ATP, 2 hours at room temperature
Protocol: 1.5 μM of fluorescent substrate peptide (FAM-AKRRRLSSLRA-COOH), 30 μM of ATP, and 0.0833 ng/μL of PIM-3 kinase were incubated with a compound for 2 hours at room temperature, and the Pim-3 kinase activity was measured. The reaction was quantified by separating the substrate and phosphorylation reaction product by capillary electrophoresis (using a Perkin-Elmer EZ reader II) based on the difference in their charges. The results are shown below in Tables 1 and 2.

[6] = tested on: MiaPaca-2; assay: Growth inhibitory activity on human pancreatic cancer cell lines (Example 4, WST-8); format: cell-based; details: MIA PaCa-2, Example 4: 72 hours, 3000 cells/well
Protocol: (§3) Three thousand cells of human pancreatic cancer cell lines (L3.6pl, MiaPaca-2, PANC-1, PCI35, and PCI66) were seeded in a medium volume of 90 μL in each well of a 96-well microtiter plate. After 24 hours, 10 μL/well of medium containing the test compound was added. Culture was continued for 72 hours, and 10 μL/well of WST-8 (Dojindo Laboratories Cell Counting kit-8) was added. After culturing for 2 hours, the OD 450 nm absorbance was measured, and the cell growth inhibitory effect was calculated. The cell lines were cultured in a carbon dioxide incubator with a carbon dioxide concentration of 5%.

[7] = tested on: PCI35; assay: as above; format: cell-based; details: Example 4: 72 hours, 3000 cells/well
Protocol: as §3

[8] = tested on: PANC-1; assay: as above; format: cell-based; details: Example 4: 72 hours, 3000 cells/well
Protocol: as §3

[9] = tested on: L3.6pl; assay: as above; format: cell-based; details: Example 4: 72 hours, 3000 cells/well
Protocol: as §3

[10] = tested on: PCI66; assay: as above; format: cell-based; details: Example 4: 72 hours, 3000 cells/well
Protocol: as §3

Compound | IC50 [1] | IC50 [2] | IC50 [3] | tumor volume [4] | IC50 [5] | IC50 [6] | IC50 [7] | IC50 [8] | IC50 [9] | IC50 [10]
COc1ccc2c(c1C(C)N1CCNCC1)O/C(=C\c1n[nH]c3ncccc13)C2=O (centres unmarked) [Compound 6, (Z)-2-[(1H-pyrazolo[3,4-b]pyridin-3-yl)methylene]-6-methoxy-7-[1-(piperazin-1-yl)ethyl]benzofuran-3(2H)-one] | 1600 nM | 1800 nM | 1800 nM | suppress an increase in tumor volume | 7.6 nM | – | – | – | – | –
COc1ccc2c(c1CN1CCC[C@H](N)C1)O/C(=C\c1n[nH]c3ncccc13)C2=O [Compound 32, (S,Z)-2-[(1H-pyrazolo[3,4-b]pyridin-3-yl)methylene]-7-[(3-aminopiperidin-1-yl)methyl]-6-methoxybenzofuran-3(2H)-one] | – | – | – | – | 0.51 nM | 2900 nM | 5300 nM | 8100 nM | 3300 nM | 4200 nM
